Measured values published in US7014990B2, “Machine perfusion solution for organ and biological tissue preservation” (priority 2000, dated 2006).

Type: physicochemical
Experimental: A machine perfusion solution of the invention may be prepared by combining the components described above with sterile water, such as distilled and/or deionized water. For example, to prepare the solution, approximately 700–900 mL, or preferably about 800 mL, of sterile water is poured into a one liter beaker at approximately room temperature. Although a one liter beaker is used in this example, any other container of any size may be used to prepare the solution, where the component amounts would be adjusted accordingly. In the most preferred embodiment, the following are added, in any order, to the solution and each is mixed until dissolved in the solution: approximately […] sodium gluconate, approximately […] potassium phosphate, approximately […] adenine, approximately […] of ribose, approximately […] of calcium chloride, and approximately 50 g modified pentastarch. The modified pentastarch is a fractionated colloid mixture of 40–60 kDaltons in diameter and is modified by infusing the pentastarch under 3 atm of pressure through a dialyzing filter with a bore size of about 40–60 kDaltons. About […] magnesium gluconate, approximately […] HEPES, approximately […] glucose, and approximately […] mannitol are also added, in any order, and mixed. Approximately 40 U of insulin is also added. […]

## CCCCC[C@H](O)/C=C/[C@H]1[C@H](O)CC(=O)[C@@H]1CCCCCCC(=O)O [modified PGE1, prostaglandin E1]
  half-life lengthened by a multiple: about 15
